According to paper PMC11363900, “A single-pass type I membrane protein, mannose-specific L-type lectin, potentially involved in the adhesion and invasion of Cryptosporidium parvum” (Parasite, 2024):

Target: T1, CpLTL (GST-CpLTL) (Cryptosporidium parvum, UniProt Q5CWG8)
T1 construct: gene cgd6_5140; lectin-leg-like domain (nucleotides 130-852 of the ORF; domain 44-284 aa of 469), without signal peptide and TM, GST fusion kept (pGEX-4T-1), E. coli Rosetta (DE3), about 48 kDa
Experiment: competition ELISA, immobilised GST-CpLTL, binding of horseradish peroxidase (mannose-rich glycoprotein), OD405
Conditions: 100 mM mannose, 50 μg/mL HRP, PBS, 4 °C overnight; competitive with HRP glycan

T1 sequence (Q5CWG8 entry or part of it): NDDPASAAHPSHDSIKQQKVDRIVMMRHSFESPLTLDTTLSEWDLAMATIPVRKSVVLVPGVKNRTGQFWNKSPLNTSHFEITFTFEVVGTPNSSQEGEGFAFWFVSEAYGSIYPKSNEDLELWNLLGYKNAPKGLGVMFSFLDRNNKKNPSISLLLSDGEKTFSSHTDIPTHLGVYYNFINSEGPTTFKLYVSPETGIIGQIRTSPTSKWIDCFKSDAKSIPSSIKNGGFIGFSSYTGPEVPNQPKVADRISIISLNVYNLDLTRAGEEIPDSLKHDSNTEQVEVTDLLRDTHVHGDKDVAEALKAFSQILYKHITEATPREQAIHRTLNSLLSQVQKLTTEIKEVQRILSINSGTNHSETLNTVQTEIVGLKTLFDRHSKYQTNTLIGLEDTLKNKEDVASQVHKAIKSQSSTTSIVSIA

OC[C@H]1OC(O)[C@@H](O)[C@@H](O)[C@@H]1O (stereo partly shown) [mannose]
competition ELISA, immobilised GST-CpLTL, binding of horseradish peroxidase (man): Mannose showed competitive inhibition on the binding of HRP to GST-CpLTL protein
